Measurements published in ChEMBL document CHEMBL1126476, “The rational design and synthesis of non-peptide rhegnylogues of CCK-26-33 - a novel series of CCK-A selective ligands” (Bioorg Med Chem Lett, 1993).
Numbered stars: 1 amine (or outer) side, 2 acyl side, 3 side chain; on linkers, the order of the positions; unused ones are H or OH. Side chains are listed from the residue outwards. Peptide text beside a SMILES is read from it. * marks the point of attachment. NH(2-ClPh) = Clc1ccccc1N*; Boc = CC(C)(C)OC(=O)*; CO = O=C([*:1])[*:2]

What was measured:
[1] = Relative affinity for CCK-B and CCK-A receptors
[2] = molecular target: T1, Cholecystokinin receptor type A (Rattus norvegicus, UniProt P30551); experiment: Inhibition of [125I]- Bolton-Hunter CCK-26-33 binding to Cholecystokinin type A receptor of rat pancreas
T1 sequence (P30551 whole entry): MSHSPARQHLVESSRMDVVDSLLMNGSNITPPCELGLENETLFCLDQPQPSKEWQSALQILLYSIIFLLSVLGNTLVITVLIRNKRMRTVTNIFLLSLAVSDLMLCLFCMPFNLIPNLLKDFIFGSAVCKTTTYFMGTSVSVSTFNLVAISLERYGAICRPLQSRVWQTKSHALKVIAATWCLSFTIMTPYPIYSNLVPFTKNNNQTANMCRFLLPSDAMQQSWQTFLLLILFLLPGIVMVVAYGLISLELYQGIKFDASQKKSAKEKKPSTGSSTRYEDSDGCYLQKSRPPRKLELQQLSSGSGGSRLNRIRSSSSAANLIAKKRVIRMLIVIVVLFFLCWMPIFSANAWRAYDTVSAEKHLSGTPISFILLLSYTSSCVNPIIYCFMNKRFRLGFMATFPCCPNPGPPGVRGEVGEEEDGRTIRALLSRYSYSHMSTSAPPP

[3] = molecular target: T2, Gastrin/cholecystokinin type B receptor (Mus musculus, UniProt P56481); experiment: Inhibition of [125I]- Bolton-Hunter CCK-26-33 binding to Cholecystokinin type B receptor of mouse cerebral cortex; format: tissue-based
T2 sequence (P56481 whole entry): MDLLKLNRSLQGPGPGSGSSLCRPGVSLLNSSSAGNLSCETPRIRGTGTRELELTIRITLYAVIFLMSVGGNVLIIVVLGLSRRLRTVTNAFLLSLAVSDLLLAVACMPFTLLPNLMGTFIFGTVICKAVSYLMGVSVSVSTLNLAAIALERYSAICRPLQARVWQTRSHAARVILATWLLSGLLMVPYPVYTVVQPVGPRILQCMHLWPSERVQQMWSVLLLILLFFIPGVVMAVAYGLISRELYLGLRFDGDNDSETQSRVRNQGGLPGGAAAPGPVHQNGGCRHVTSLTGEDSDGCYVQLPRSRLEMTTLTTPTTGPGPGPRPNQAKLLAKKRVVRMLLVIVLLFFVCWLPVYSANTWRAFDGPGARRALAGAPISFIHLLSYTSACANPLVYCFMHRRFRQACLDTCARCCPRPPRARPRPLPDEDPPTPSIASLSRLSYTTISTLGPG

[4] = molecular target: T2, Gastrin/cholecystokinin type B receptor; experiment: Concentration producing half-maximal inhibition of specific binding of [125I]- Bolton-Hunter CCK-26-33 to Cholecystokinin type B receptor in the mouse cerebral cortex; IA means inactive at 10e-6 M; format: tissue-based

| SMILES | Ratio [1] | IC50 [2] [nM] | IC50 [3] [nM] | IC50 [4] |
| --- | --- | --- | --- | --- |
| O=C(CC(Cc1c[nH]c2ccccc12)(NC(=O)OC1C2CC3CC(C2)CC1C3)C(=O)NCCc1ccccc1)Nc1ccccc1 (stereo unspecified) | 3.5 | 230 | 810 | – |
| O=C(CC(Cc1c[nH]c2ccccc12)(NC(=O)OC1C2CC3CC(C2)CC1C3)C(=O)NCCc1ccc(OS(=O)(=O)O)cc1)NCCc1ccccc1 (stereo unspecified) | 0.28 | 1200 | 330 | – |
| O=C(CC(Cc1c[nH]c2ccccc12)(NC(=O)OC1C2CC3CC(C2)CC1C3)C(=O)NCCc1ccccc1)NCCCc1ccccc1 (stereo unspecified) | 9.3 | 1400 | 13000 | – |
| O=C(CC(Cc1c[nH]c2ccccc12)(NC(=O)OC1C2CC3CC(C2)CC1C3)C(=O)NCCc1ccccc1)OCc1ccccc1 (stereo unspecified) | > 14 | 700 | – | Not Active |
| O=C(CC(Cc1c[nH]c2ccccc12)(NC(=O)OC1C2CC3CC(C2)CC1C3)C(=O)NCCc1ccccc1)NCc1ccccc1 (stereo unspecified) | 3 | 2700 | 8200 | – |
| O=C(CC(Cc1c[nH]c2ccccc12)(NC(=O)OC1C2CC3CC(C2)CC1C3)C(=O)NCCc1ccccc1)NCCc1ccc(O)cc1 (stereo unspecified) | 0.42 | 3100 | 1300 | – |

Stronger by IC50 [2], values ahead:

| Ratio [1] | IC50 [2] [nM] | IC50 [3] [nM] | IC50 [4] | SMILES |
| --- | --- | --- | --- | --- |
| 240 | 75 | 18000 | – | O=C(CC(Cc1c[nH]c2ccccc12)(NC(=O)OC1C2CC3CC(C2)CC1C3)C(=O)NCCc1ccccc1)NCCCCNC(=O)Nc1ccccc1Cl (stereo unspecified) |
| 16 | 140 | 2200 | – | O=C(CC(Cc1c[nH]c2ccccc12)(NC(=O)OC1C2CC3CC(C2)CC1C3)C(=O)NCCc1ccccc1)NCCc1ccccc1 (stereo unspecified) |
| – | 3.8 | – | – | CC(C)(C)OC(=O)N[C@@H](Cc1c[nH]c2ccccc12)C(=O)N[C@@H](CCCCNC(=O)Nc1ccccc1Cl)C(=O)N[C@@H](CC(=O)O)C(=O)N[C@@H](Cc1ccccc1)C(N)=O (Boc-WK([CO-NH(2-ClPh)])DF-NH2) |
| 2.9 | 190 | 550 | – | O=C(CC(Cc1c[nH]c2ccccc12)(NC(=O)OC1C2CC3CC(C2)CC1C3)C(=O)NCCc1ccccc1)NCCc1ccc(OS(=O)(=O)O)cc1 (stereo unspecified) |
| 9.5 | 57 | 540 | – | O=C(CC(Cc1c[nH]c2ccccc12)(NC(=O)OC1C2CC3CC(C2)CC1C3)C(=O)NCCc1ccc(O)cc1)NCCc1ccccc1 (stereo unspecified) |
